Holding throughout (assay): NCI tumour cell line growth inhibition, 48 h
The subject of test [1] is MALME-3M melanoma.
Test [2] concerns NCI-H522 lung.
For test [3], the system named is SK-OV-3 ovarian.
Test [4] concerns HOP-62 NSCLC.
In test [5] the test system is OVCAR-5 ovarian.
Test [6] relates to UO-31 renal.
For test [7], the system named is HCT-116 colon.
Test [8] relates to SK-MEL-28 melanoma.
Test [9] relates to TK-10 renal.
Test [10] relates to HS 578T breast.

Structures are written as SMILES.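 Where inhibition never reached the appropriate level, the endpoint shown equals the highest concentration tested. Otherwise, values were interpolated linearly from a five-concentration, 48-hour dose response in 96-well plates. Abbreviation: GI50, concentration required for 50% inhibition of growth. TGI marks complete inhibition of growth.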

With `N#C/C(=C\c1ccc(O)cc1O)C(N)=O`, the TGI in test [1], in test [2], in [3], in test [4], in [5] and in [6] was more than 100 µM throughout. Also, the TGI in test [7], in test [8] and in [9] was more than 100 µM in each case.
Consider `COc1cccc(Nc2nccc(Nc3ccc4[nH]ncc4c3)n2)c1`, for which the GI50 was 1.48 µM in test [2]; 1.79 µM in test [10]; 2.31 µM in test [3]; 1.71 µM in test [4]; 1.59 µM in test [7]; 1.42 µM in [9]. The TGI in test [2] worked out at 2.86 µM; in test [10], 4.61 µM; in test [3], 5.4 µM; in test [4], 3.78 µM; in [7], 3.23 µM; in test [9] it was 2.82 µM.
On to `COC(=O)/C(=N\O)C(C(=O)C=C(C)C)C(=O)C(=O)Nc1ccccc1C` (stereo unspecified), for which the TGI in [1], in test [2], in test [3], in [4], in test [5] and in test [6] was more than 100 µM each time. For the same molecule, the TGI in test [7], in test [8] and in test [9] was more than 100 µM throughout.
Take `N#CC(C#N)=Cc1ccc(-c2ccc(-c3nc4ccccc4o3)cc2)o1`: the GI50 in [1] was 41.9 µM; in test [2] it was 60.4 µM; in test [3], 38.3 µM; in test [4] it was 21.6 µM; in test [5], 27.1 µM; in test [6], 58.4 µM. Besides, the GI50 is 18.2 µM in test [7], more than 100 µM in test [8] and 23.7 µM in test [9]. Moreover, the TGI in [1] was more than 100 µM; in test [2], more than 100 µM; in test [3] it was more than 100 µM; in [4], 51.9 µM; in [5] it was 52 µM; in test [6], more than 100 µM. The TGI is 42.3 µM in test [7], more than 100 µM in [8] and 77.3 µM in test [9].
Consider `COC(=O)C(=O)C1CCCCC(C2=NC3NN=C(N)N3C2=O)C1=O` (stereo unspecified), for which the TGI in test [1], in test [2], in [3], in test [4], in test [5] and in [6] was more than 100 µM throughout. Further, the TGI in [7], in test [8] and in test [9] was more than 100 µM each time.
As for `Cc1sc(/N=C2/NC(=O)CS2)nc1-c1nc(/N=C2/NC(=O)CS2)sc1C`, the GI50 in test [2] is more than 50 µM; in test [10], 2.17 µM; in test [4], 35.2 µM; in test [5], more than 50 µM; in test [6], more than 50 µM; in [7], 15.7 µM. In addition, the GI50 in test [8] was 26.7 µM; in [9], more than 50 µM. For the same molecule, the TGI is more than 50 µM in [2]; 36.3 µM in test [10]; more than 50 µM in test [4]; more than 50 µM in test [5]; more than 50 µM in [6]; more than 50 µM in [7]. Also, the TGI in test [8] and in test [9] was more than 50 µM each time.
As to `COC(=O)C1=Cc2c(OC)cc(OC)c(OC)c2[C@H](c2cc(OC)c(OC)cc2OC)C1C(=O)OC` (stereo partly specified), the TGI in test [1], in test [2], in [3], in test [4], in test [5] and in test [6] was more than 100 µM each time. Moreover, the TGI in test [7], in test [8] and in test [9] was more than 100 µM throughout.
Turning to `Oc1[nH]c2ccc(Cl)cc2c1/C=c1/ccc2c(c1)N=C(c1cc(F)cc(F)c1)N=2`, the GI50 in [1] is 57.5 µM; in [2], 2.14 µM; in [10] it was 2.9 µM; in test [3] it was 31.9 µM; in [4], 3.77 µM; in test [5], more than 100 µM. For the same molecule, the GI50 in test [6] is 87.3 µM; in test [8], 5.06 µM; in test [9], 7.22 µM. For the same molecule, the TGI in test [1] was more than 100 µM; in test [2] it was 5.74 µM; in test [10], more than 100 µM; in [3], more than 100 µM; in test [4], 45 µM; in test [5] it was more than 100 µM. For the same molecule, the TGI in [6], in test [8] and in test [9] was more than 100 µM throughout.
Regarding `CC1(C)CC2CC(C)(CN2c2ncnc3ccc(Br)cc23)C1` (stereo unspecified), the GI50 in test [1] is 0.195 µM; in test [2], 13 µM; in [10], 10.3 µM; in test [3], 16.8 µM; in test [4], 12.9 µM; in [5] it was 14.1 µM. In addition, the GI50 in [6] is 14 µM; in test [8] it was 13.9 µM; in test [9] it was 11.4 µM. Also, the TGI stood at 11.6 µM in test [1]; 29.3 µM in test [2]; 30.4 µM in [10]; 31.2 µM in test [3]; 25.6 µM in test [4]; 27.1 µM in test [5]. The TGI in test [6] was determined as 56.1 µM; in test [8] it was 28 µM; in test [9], 23.6 µM.
In the case of `CC[O-].CC[O-].O=C([CH-]C(=O)c1ccccc1)c1ccccc1.O=C([CH-]C(=O)c1ccccc1)c1ccccc1.[Ti+4]`, the GI50 in test [1], in [2], in [3], in [4], in [5] and in [6] was more than 100 µM in each case. The GI50 in test [7], in [8] and in test [9] was more than 100 µM in each case. Further, the TGI in test [1], in test [2], in test [3], in test [4], in test [5] and in test [6] was more than 100 µM throughout. Further, the TGI in [7], in [8] and in test [9] was more than 100 µM in each case.

Values taken from PubChem BioAssay (NCI).
